Test results taken from patent US12458643B2, “Antidepressant/anxiolytic drug in which PAC1 receptor antagonist is used” (KAGOSHIMA UNIVERSITY, priority 2020, dated 2025).

Key:
PAC1 receptor = target: T1, PAC1 receptor (Homo sapiens, UniProt P41586); conditions: disclosed in Patent Literature 2 (WO 2019/065794); cited from earlier work
T1 sequence (P41586 21-468): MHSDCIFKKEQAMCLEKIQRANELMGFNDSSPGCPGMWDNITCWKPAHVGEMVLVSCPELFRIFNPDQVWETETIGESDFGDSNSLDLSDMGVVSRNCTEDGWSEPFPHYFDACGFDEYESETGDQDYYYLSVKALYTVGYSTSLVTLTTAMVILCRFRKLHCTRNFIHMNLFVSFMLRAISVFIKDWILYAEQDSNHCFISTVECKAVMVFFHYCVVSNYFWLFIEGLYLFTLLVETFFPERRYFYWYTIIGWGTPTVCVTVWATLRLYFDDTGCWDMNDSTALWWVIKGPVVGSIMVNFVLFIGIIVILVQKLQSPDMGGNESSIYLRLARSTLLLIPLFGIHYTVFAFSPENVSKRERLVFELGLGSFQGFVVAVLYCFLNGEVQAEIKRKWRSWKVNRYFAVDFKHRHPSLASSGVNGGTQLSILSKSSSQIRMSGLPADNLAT

normal mice [1] = assay: Radial maze test in normal mice; type: in vivo, mouse; conditions: i.p. PA-915 30 mg/kg, ketamine 20 mg/kg, 30 minutes later, Day 10
Procedure: (3) The effects of PA-915 and ketamine on normal mice were evaluated by a radial maze test (test to evaluate spatial working memory by exploiting the foraging behavior of mice, and using an apparatus having 40 cm long, 10 cm wide and 12 cm high arms radially arranged in 8 directions).
On Day 0, male C57BL/6J mice (8 weeks old) were acclimatized to the apparatus by free exploration for 10 minutes in the apparatus in a laboratory (illuminance: 200 lx). On Days 1 and 2, the mice were allowed to explore only correct arms baited with a reward (food pellets, 5 mg) for 10 minutes. On Days 3 to 9, the mice were allowed to explore all the arms for 5 minutes at maximum until the mice finished the reward while the ends of the correct arms were baited with the reward. On Day 10, a vehicle (V: 10% DMSO solution; dissolved in saline; n=10), PA-915 (PA: 30 mg/kg; n=10) or ketamine (K: 20 mg/kg; n=10) was intraperitoneally administered thereto (0.1 mL/10 g). The mice were allowed to freely explore the maze from 30 minutes later, and the number of entries to the arms without the reward (the number of errors) was measured. During the test period, the absence of marked change in the body weights of the mice by dietary restriction was confirmed. The data was indicated by mean±standard error. **P<0.01 (One-way ANOVA followed by Tukey-Kramer test).

normal mice [2] = assay: Prepulse inhibition (PPI) test in normal mice; type: in vivo, mouse; conditions: i.p. PA-915 30 mg/kg, ketamine 20 mg/kg
Procedure: A vehicle (V: 10% DMSO solution; dissolved in saline; n=13), PA-915 (PA: 30 mg/kg; n=10) or ketamine (K: 20 mg/kg; n=15) was intraperitoneally administered (0.1 mL/10 g) to male C57BL/6J mice (8 to 12 weeks old), which were then acclimatized to 65 dB background noise for 5 minutes in the apparatus. The mice were randomly stimulated 20 times with 50-msec 120 dB startle sound or with 20-msec 73 dB, 77 dB, and 81 dB prepulse sounds and 50-msec 120 dB startle sound 50 msec after each prepulse sound for 30 minutes from the completion of acclimatization. In this respect, the ratio of PPI was calculated according to [(Average startle amplitude without prepulse)−(Average startle amplitude of trial with prepulse)]/(Average startle amplitude without prepulse)×100. The data was indicated by mean±standard error. **P<0.01; *P<0.05 (One-way ANOVA followed by Tukey-Kramer test).

[3] = system: plasma corticosterone level; assay: Repeated corticosterone administration, plasma corticosterone level (ELISA); type: in vivo, mouse; conditions: male mice, corticosterone 20 mg/kg s.c. 21 days; single i.p. PA-915 30 mg/kg, ketamine 20 mg/kg; next day
Procedure: A vehicle (0.5% carboxymethylcellulose solution) or corticosterone (20 mg/kg) was subcutaneously administered (0.1 mL/10 g) to male C57BL/6J mice (7 weeks old) for 21 days. A vehicle (10% DMSO solution; dissolved in saline; n=4), PA-915 (30 mg/kg; n=4) or ketamine (20 mg/kg; n=4) was intraperitoneally administered thereto (0.1 mL/10 g) 3 hours after administration on the 21st day. On the next day, the mice were subjected to the forced swim test and then decapitated, and systemic circulating blood was collected. The plasma corticosterone level was measured using Corticosterone ELISA kit from Cayman Chemical Company. Mice given the vehicle by repeated administration without repeated corticosterone administration were used as a control (n=4). The data was indicated by mean±standard error. **P<0.01 (One-way ANOVA followed by Tukey-Kramer test).

normal mice [4] = assay: Spontaneous motor activity in normal mice (open field test); type: in vivo, mouse; conditions: i.p. PA-915 30 mg/kg, ketamine 20 mg/kg, fluoxetine 20 mg/kg, 30 min before vs 30 min after administration
Procedure: (1) The effects of PA-915, ketamine and the existing drug fluoxetine on normal mice were evaluated by an open field test (test to measure spontaneous locomotion in a novel environment by exploiting the properties of mice to do exploratory behavior in such a novel environment, and using a 45 cm×45 cm box of 30 cm in height).
Male C57BL/6J mice (8 to 12 weeks old) were placed in the box (illuminance: 100 lx) and allowed to freely explore the box for 60 minutes. Then, a vehicle (V: 10% DMSO solution; dissolved in saline; n=8), PA-915 (PA: 30 mg/kg; n=9), ketamine (K: 20 mg/kg; n=8) or fluoxetine (F: 20 mg/kg; n=11) was intraperitoneally administered thereto (0.1 mL/10 g). Spontaneous motor activity was measured by using the total distances traveled for 30 minutes before administration and for 30 minutes after administration as indexes. The data was indicated by mean±standard error. **P<0.01; *P<0.05 (Two-way ANOVA followed by Tukey-Kramer test).

SMILES | PAC1 receptor antagonistic action (PAC1 receptor) | influence on spatial working memory (number of errors, radial maze) (normal mice [1]) | influence on prepulse inhibition (PPI ratio) (normal mice [2]) | effect on plasma corticosterone level [3] | change in spontaneous motor activity (total distance traveled) (normal mice [4])
C=CCOc1ccc(C2CC(=O)Nc3nc(N)[nH]c(=O)c32)cc1OC (stereo not drawn) [PA-8] | PAC1 receptor antagonistic action |  |  |  | 
O=C(NCCc1c[nH]cn1)C1CC(=O)N(c2n[nH]c3ccccc23)C1 (stereo not drawn) [PA-9] | PAC1 receptor antagonistic action |  |  |  | 
CNC1(c2ccccc2Cl)CCCCC1=O (stereo not drawn) [ketamine] |  | decreased spatial cognitive function | caused prepulse inhibition deficits | decreased the plasma corticosterone level | increase in spontaneous motor activity
